Where “and” joins values, the source holds several entries; their conditions need not be identical. Equal values may be shown once. Records with an inconclusive call do not appear.
System: BDF1 mice, colon carcinoma 38 sc, T/C %
Assay: NCI In Vivo Anticancer Drug Screen. Data for tumor model Colon Carcinoma 38 (subcutaneous) in B6D2F1 (BDF1) mice
Settings: endpoint: median tumor weight (est.), higher = larger tumour
In short: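 T/C readout: treated group (T) measurement over vehicle control group (C) measurement. Endpoint is survival or tumor size in mice bearing a transplanted tumor.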

[1] = dose: 25.0 mg/kg/injection, schedule: Q07DX002 (ip), vehicle: Klucel (hydroxypropylcellulose) (HPC)
[2] = dose: 12.5 mg/kg/injection, schedule: Q07DX002 (ip), vehicle: saline
[3] = dose: 25.0 mg/kg/injection, schedule: Q07DX002 (ip), vehicle: saline
[4] = dose: 50.0 mg/kg/injection, schedule: Q07DX002 (ip), vehicle: saline
[5] = dose: 12.5 mg/kg/injection, schedule: Q07DX002 (ip), vehicle: suspension in saline
[6] = dose: 25.0 mg/kg/injection, schedule: Q07DX002 (ip), vehicle: suspension in saline
[7] = dose: 50.0 mg/kg/injection, schedule: Q07DX002 (ip), vehicle: suspension in saline
[8] = dose: 100.0 mg/kg/injection, schedule: Q07DX002 (ip), vehicle: suspension in saline
[9] = dose: 100.0 mg/kg/injection, schedule: Q07DX002 (ip), vehicle: Klucel (hydroxypropylcellulose) (HPC)
[10] = dose: 200.0 mg/kg/injection, schedule: Q07DX002 (ip), vehicle: Klucel (hydroxypropylcellulose) (HPC)
[11] = dose: 400.0 mg/kg/injection, schedule: Q07DX002 (ip), vehicle: Klucel (hydroxypropylcellulose) (HPC)
[12] = dose: 50.0 mg/kg/injection, schedule: Q07DX002 (ip), vehicle: saline with Tween-80

Cc1c2ccccc2cc2cccc[n+]12 was tested, and the T/C (dose: 10.0 mg/kg/injection, schedule: Q07DX002 (ip), vehicle: saline) was 87 % of control and 96 % of control, the T/C (dose: 20.0 mg/kg/injection, schedule: Q07DX002 (ip), vehicle: saline) was 77 % of control and the T/C (dose: 40.0 mg/kg/injection, schedule: Q07DX002 (ip), vehicle: saline) was 112 % of control and 94 % of control. The T/C (dose: 80.0 mg/kg/injection, schedule: Q07DX002 (ip), vehicle: saline) was 109 % of control.
For O=C(O)Cc1cccc2c(=O)c(-c3ccccc3)c(-c3ccccc3)oc12, the T/C [1] was 90 % of control and the T/C (dose: 50.0 mg/kg/injection, schedule: Q07DX002 (ip), vehicle: Klucel (hydroxypropylcellulose) (HPC)) was 92 % of control.
With CCNC(=O)OCc1c(COC(=O)NCC)c(-c2ccc(Cl)c(Cl)c2)n2c1CCC2 the T/C (dose: 3.12 mg/kg/injection, schedule: Q07DX002 (ip), vehicle: saline) was 74 % of control, the T/C (dose: 6.25 mg/kg/injection, schedule: Q07DX002 (ip), vehicle: saline) was 104 % of control and the T/C [2] was 86 % of control. The T/C [3] was 62 % of control and the T/C [4] was 42 % of control.
In the case of COc1cc(Cc2nccc3cc(OC)c(OC)cc23)c(C(C)=O)cc1OC, the T/C [5] is reported as 166 % of control, the T/C [6] is reported as 108 % of control and the T/C [7] is reported as 110 % of control. The T/C [8] was 69 % of control.
For Nc1ncnc2c1ccn2C1OC(CO)C(O)C1O (stereo not given), the T/C (dose: 0.5 mg/kg/injection, schedule: Q07DX003 (ip), vehicle: Klucel (hydroxypropylcellulose) (HPC)) was 110 % of control and 87 % of control, the T/C (dose: 1.0 mg/kg/injection, schedule: Q07DX003 (ip), vehicle: Klucel (hydroxypropylcellulose) (HPC)) was 74 % of control and 80 % of control and the T/C (dose: 2.0 mg/kg/injection, schedule: Q07DX003 (ip), vehicle: Klucel (hydroxypropylcellulose) (HPC)) was 84 % of control and 86 % of control.
For O=C1CN(CCN2CC(=O)N(CN3CCOCC3)C(=O)C2)CC(=O)N1CN1CCOCC1, the T/C (dose: 12.5 mg/kg/injection, schedule: Q07DX002 (ip), vehicle: water) was 168 % of control, the T/C (dose: 25.0 mg/kg/injection, schedule: Q07DX002 (ip), vehicle: water) was 158 % of control and the T/C (dose: 50.0 mg/kg/injection, schedule: Q07DX002 (ip), vehicle: water) was 36 % of control. For the same molecule, the T/C (dose: 100.0 mg/kg/injection, schedule: Q07DX002 (ip), vehicle: water) was 113 % of control and 90 % of control and the T/C (dose: 200.0 mg/kg/injection, schedule: Q07DX002 (ip), vehicle: water) was 57 % of control.
In the case of C=CC(C)NC(=S)NNC(=S)NC (stereo not given), the T/C (dose: 50.0 mg/kg/injection, schedule: Q07DX002 (ip), vehicle: saline + alcohol) is reported as 97 % of control, the T/C (dose: 100.0 mg/kg/injection, schedule: Q07DX002 (ip), vehicle: saline + alcohol) is reported as 112 % of control and the T/C (dose: 200.0 mg/kg/injection, schedule: Q07DX002 (ip), vehicle: saline + alcohol) is reported as 104 % of control. For the same molecule, the T/C (dose: 400.0 mg/kg/injection, schedule: Q07DX002 (ip), vehicle: saline + alcohol) was 86 % of control.
With Cc1ccc(NCCN(C)C)c2c(=O)c3cc(O)ccc3sc12 the T/C [9] was 42 % of control and 48 % of control and the T/C [10] was 17 % of control.
In the case of CCNC(=O)[B-][N+](C)(C)C, the T/C [9] is reported as 116 % of control, the T/C [10] is reported as 67 % of control and the T/C [11] is reported as 113 % of control and 96 % of control.
C[C@@]1(CO)[C@H](O)CC[C@@]2(C)[C@H]1CC[C@H]1C[C@@H]3C[C@@]12CC[C@@]3(O)COC(=O)CN was tested, and the T/C (dose: 25.0 micrograms/kg/injection, schedule: Q07DX002 (ip), vehicle: saline + alcohol) was 155 % of control and the T/C (dose: 100.0 micrograms/kg/injection, schedule: Q07DX002 (ip), vehicle: saline + alcohol) was 107 % of control.
With C=C1C(C)C2C(Cc3ccccc3)NC(=O)C23C(OC(C)=O)C=CC(C)(O)C(=O)C(C)C/C=C/C3C1O (stereo not given) the T/C (dose: 0.31 mg/kg/injection, schedule: Q07DX003 (ip), vehicle: Klucel (hydroxypropylcellulose) (HPC)) was 93 % of control, the T/C (dose: 0.62 mg/kg/injection, schedule: Q07DX003 (ip), vehicle: Klucel (hydroxypropylcellulose) (HPC)) was 53 % of control and the T/C (dose: 1.25 mg/kg/injection, schedule: Q07DX003 (ip), vehicle: Klucel (hydroxypropylcellulose) (HPC)) was 72 % of control. For the same molecule, the T/C (dose: 2.5 mg/kg/injection, schedule: Q07DX003 (ip), vehicle: Klucel (hydroxypropylcellulose) (HPC)) was 100 % of control, the T/C (dose: 5.0 mg/kg/injection, schedule: Q07DX003 (ip), vehicle: Klucel (hydroxypropylcellulose) (HPC)) was 84 % of control and the T/C (dose: 10.0 mg/kg/injection, schedule: Q07DX003 (ip), vehicle: Klucel (hydroxypropylcellulose) (HPC)) was 105 % of control.
With C=C(NC(=O)C(=C)NC(=O)c1csc(C2=NC3c4csc(n4)C4NC(=O)c5csc(n5)C(C(C)(O)C(C)O)NC(=O)C5CSC(=N5)/C(=C/C)NC(=O)C(C(C)O)NC(=O)c5csc(n5)C3(CC2)NC(=O)C(C)NC(=O)C(=C)NC(=O)C(=C)NC(=O)C(C(C)C)NC2C=Cc3c(C(C)O)cc(nc3C2O)C(=O)OC4C)n1)C(N)=O (stereo not given) the T/C [5] was 95 % of control, the T/C [6] was 98 % of control and the T/C [7] was 111 % of control. For the same molecule, the T/C [8] was 72 % of control, the T/C (dose: 200.0 mg/kg/injection, schedule: Q07DX002 (ip), vehicle: suspension in saline) was 75 % of control and the T/C (dose: 400.0 mg/kg/injection, schedule: Q07DX002 (ip), vehicle: suspension in saline) was 86 % of control.
COc1cccc2c1C(=O)c1c(O)c3c(c(O)c1C2=O)C[C@H](O)C[C@@H]3OC1CC(N)C(O)C(C)O1 (stereo not given in full) was tested, and the T/C (dose: 3.38 mg/kg/injection, schedule: Q07DX002 (ip), vehicle: water) was 97 % of control, the T/C (dose: 13.5 mg/kg/injection, schedule: Q07DX002 (ip), vehicle: water) was 108 % of control and the T/C (dose: 15.0 mg/kg/injection, schedule: Q07DX002 (ip), vehicle: saline) was 87 % of control. For the same molecule, the T/C (dose: 24.0 mg/kg/injection, schedule: Q07DX002 (ip), vehicle: saline) was 101 % of control, the T/C (dose: 27.0 mg/kg/injection, schedule: Q07DX002 (ip), vehicle: water) was 55 % of control and the T/C (dose: 38.0 mg/kg/injection, schedule: Q07DX002 (ip), vehicle: saline) was 61 % of control.
In the case of O=S(=O)(c1ccccc1)N1CN2CCN(C2)C1, the T/C (dose: 25.0 mg/kg/injection, schedule: Q07DX002 (ip), vehicle: saline with Tween-80) is reported as 94 % of control and the T/C [12] is reported as 62 % of control.
In the case of C[Si](C)(C)O/C=C1\CCCCC1=O, the T/C [12] is reported as 73 % of control and 91 % of control and the T/C (dose: 100.0 mg/kg/injection, schedule: Q07DX002 (ip), vehicle: saline with Tween-80) is reported as 79 % of control and 100 % of control.
For COc1cc(C[C@H]2c3cc(OC)c(OC)cc3CCN2C)c(Oc2cc3c(cc2OC)-c2c(OC)c(OC)cc4c2[C@H](C3)N(C)CC4)cc1OC, the T/C (dose: 25.0 mg/kg/injection, schedule: Q01DX005 (ip), vehicle: saline) was 59 % of control, the T/C (dose: 25.0 mg/kg/injection, schedule: Q04DX003 (ip), vehicle: saline) was 116 % of control and the T/C (dose: 50.0 mg/kg/injection, schedule: Q01DX005 (ip), vehicle: saline) was 198 % of control. For the same molecule, the T/C (dose: 50.0 mg/kg/injection, schedule: Q04DX003 (ip), vehicle: saline) was 60 % of control, the T/C (dose: 100.0 mg/kg/injection, schedule: Q01DX005 (ip), vehicle: saline) was 64 % of control and the T/C (dose: 100.0 mg/kg/injection, schedule: Q04DX003 (ip), vehicle: saline) was 76 % of control. For the same molecule, the T/C (dose: 200.0 mg/kg/injection, schedule: Q01DX005 (ip), vehicle: saline) was 36 % of control.
For CCN=C=NCCCN(C)C, the T/C [2] was 118 % of control, the T/C [3] was 103 % of control and the T/C [4] was 120 % of control. The T/C (dose: 100.0 mg/kg/injection, schedule: Q07DX002 (ip), vehicle: saline) was 100 % of control.
With C[C@H]1C[C@@H]2[C@H]([C@@H](O)C[C@@]3(C)[C@H]2CC[C@]3(O)C(=O)CO)[C@@]2(C)C=CC(=O)C=C12 the T/C (dose: 6.25 mg/kg/injection, schedule: Q07DX002 (ip), vehicle: Klucel (hydroxypropylcellulose) (HPC)) was 82 % of control, the T/C [1] was 87 % of control and 88 % of control and the T/C [9] was 111 % of control and 86 % of control. For the same molecule, the T/C [10] was 87 % of control and 88 % of control and the T/C [11] was 93 % of control.
In the case of C[n+]1c(-c2cccc(OCCOCCOc3cccc(-c4c5cc(N)ccc5c5ccc(N)cc5[n+]4C)c3)c2)c2cc(N)ccc2c2ccc(N)cc21, the T/C (dose: 1.0 mg/kg/injection, schedule: Q07DX002 (ip), vehicle: water) is reported as 53 % of control, the T/C (dose: 4.0 mg/kg/injection, schedule: Q07DX002 (ip), vehicle: water) is reported as 44 % of control and 45 % of control and the T/C (dose: 32.0 mg/kg/injection, schedule: Q07DX002 (ip), vehicle: water) is reported as 81 % of control.
